Measurements: patent US5459143A, “N,N-disubstituted piperazines” (Bayer Aktiengesellschaft, priority 1993, dated 1995)

Assays:
[1] = test system: monocyte-free human T cells; test: Inhibition of 5-HT-dependent T cell proliferation; type: cell-based; conditions: PWM (1:200) and 5-HT (100 μM) stimulated T cells, 3H-thymidine incorporation on day 7, tested at 33 μM-0.1 μM
Text: The in vitro activity of the compounds according to the invention results from their capability to inhibit T cell proliferation, which is previously stimulated by serotonin.
Inhibition of 5-HT-dependent T cell proliferation
Peripheral mononuclear blood cells (PBMC) are obtained from the buffy coat of the blood of healthy subjects. After isolation by means of isolymph gradients (Pharmacia), the PBMC are washed twice and used directly. Purified T cells are obtained by E rosette formation with sheep erythrocytes [cf. Blue, M. -L., J. F. Daley, H. Levine, K. A. Craig and S. F. Schlossmann, 1986, Biosynthesis and surface expression of T8 by peripheral blood T4+ cells in vitro, J. Immunol. 137, 1202]. Monocytes are partially removed by adhesion to tissue culture plates or flasks. PBMC, T cells or purified T cells (depleted in monocytes) at 5×10^5 /ml, 100 μl/well are cultured in RPMI 1640 medium with 10% fetal calf serum (GIBCO) and L-glutamine in 96-well microculture plates (Becton-Dickinson) under a 5% CO2 atmosphere at 37° C. for 7 days. The cultures are treated with 1 μCi of ^3 H-thymidine for 6 h on the 7th day and collected on filter paper, and the incorporated radioactivity is determined by means of liquid scintillation counting.
The test substances are dissolved in 10 mM HCl in order to achieve a final concentration of 1 mM in each case. The compounds are diluted serially 3× with medium in order to obtain a final concentration between 33 μM-0.1 μM. PWM (1:200, pokeweed mitogen) and 5-HT (100 μM, serotonin), which contain the test substances, are added to monocyte-free human T cells. The positive control (maximum proliferation) is obtained from cultures containing T cells, PWM and 5-HT. The negative control (minimal proliferation) is obtained from cultures containing T cells and PWM without 5-HT. The inhibitory activity of the test substances is expressed as the IC50 in μM.

[2] = test system: Lewis rats; test: Adjuvant arthritis model in the rat; type: in vivo; conditions: Freund's adjuvant arthritis, malleolus diameter day 16 vs day 0, dosing on days 0, 1, 2, 5, 7, 9, 12 and 14
Method: Adjuvant arthritis model in the rat
Freund's adjuvant (FA) is prepared by addition of 10 mg/ml of heat-killed Mycobacterium butyricum to extra-heavy mineral oil. Lewis rats receive a 0.1 ml injection of FA (1 mg/animal) subcutaneously in the right hind paw. An acute inflammation takes place there, which is characterized by reddening, edema and a predominant neutrophilic cell infiltration (primary reaction). Tumescent areas in the treated paw on day 5 are followed between day 10-12 by an increase in the swelling (chronic inflammatory reaction) and the occurrence of a swelling in the opposite untreated paw (secondary immune response).
The cell infiltration of the chronic inflammation and the second immune response are mainly mononuclear, which indicates the presence of T-cell mediated immunity. The animals are observed daily, and the swelling is measured in millimeters on days 12 and 16 using a hand-adjustable micrometer. The swelling reaches its peak on the 16th day, on which the animals are sacrificed and tissue samples are taken for histological evaluation.
The extent of the swelling is determined by calculation of the greatest difference in the malleolus diameter between the 16th and the 0th day.
The animals receive the compounds according to the invention in a suspension of 5% polyethylene glycol and 0.5% Tween 80 in phosphate buffer solution p.o. or i.p. on days 0, 1, 2, 5, 7, 9, 12 and 14 [cf. for this purpose L. Sokoloff, 1984, Int. Rev. Exp. Pathol. 26, 107; M. E. J. Bittingham et al., 1989, J. Exp. Med. 171, 339; K. M. Connolly et al., 1989, Agents and Actions 27, 328].

| SMILES | IC50 [1] | Inhibition of the swelling in % after administration of 10 mg/kg i.p. [2] |
| --- | --- | --- |
| O=C1C2C3c4ccccc4C(c4ccccc43)C2C(=O)N1CCCN1CCN(C(c2ccccc2)c2ccccc2)CC1 (centres unmarked) [Example 4] | > 10 µM | – |
| c1cnc(N2CCN(CCCN3CC4C5c6ccccc6C(c6ccccc65)C4C3)CC2)nc1 (centres unmarked) [Example 15] | 2 µM | – |
| Fc1ccc(C(CCCN2CCN(CCCN3CC4C5c6ccccc6C(c6ccccc65)C4C3)CC2)c2ccc(F)cc2)cc1 (centres unmarked) [Example 23] | 0.1 µM | – |
| Clc1ccc(C(c2ccccc2)N2CCN(CCCN3CC4C5c6ccccc6C(c6ccccc65)C4C3)CC2)cc1 (centres unmarked) [Example 26] | 1 µM | – |
| O=C1C2C3c4ccccc4C(c4ccccc43)C2C(=O)N1CCCN1CCN(C(c2ccc(F)cc2)c2ccc(F)cc2)CC1 (centres unmarked) [Example 1] | > 10 µM | – |
| O=C1C2C3c4ccccc4C(c4ccccc43)C2C(=O)N1CCCN1CCN(CCc2ccccc2C(F)(F)F)CC1 (centres unmarked) [Example 5] | 2 µM | 24% |
| c1cnc(N2CCN(CCCCN3CC4C5c6ccccc6C(c6ccccc65)C4C3)CC2)nc1 (centres unmarked) [Example 17] | > 10 µM | – |
| c1ccc2c(c1)C1c3ccccc3C2C2CN(CCCN3CCN(C4CCCC4)CC3)CC12 (centres unmarked) [Example 24] | 6 µM | – |
| O=C1C2C3c4ccccc4C(c4ccccc43)C2C(=O)N1CCCN1CCN(c2ncccn2)CC1 (centres unmarked) [Example 3] | > 10 µM | – |
| c1ccc2c(c1)C1c3ccccc3C2C2CN(CCCN3CCN(C4CCCCCC4)CC3)CC12 (centres unmarked) [Example 19] | 5 µM | – |
| c1ccc(C(c2ccccc2)N2CCN(CCCN3CC4C5c6ccccc6C(c6ccccc65)C4C3)CC2)cc1 (centres unmarked) [Example 21] | 0.5 µM | 0.5% |
| O=C1C2C3c4ccccc4C(c4ccccc43)C2C(=O)N1CCCN1CCN(C2CCCC2)CC1 (centres unmarked) [Example 10] | 30 µM | – |
| Fc1ccc(C(c2ccc(F)cc2)N2CCN(CCCN3CC4C5c6ccccc6C(c6ccccc65)C4C3)CC2)cc1 (centres unmarked) [Example 13] | – | 2% |
| CC12c3ccccc3C(c3ccccc31)C1CN(CCCN3CCN(C(c4ccccc4)c4ccccc4)CC3)CC12 (centres unmarked) [Example 20] | 0.5 µM | 79% |
| CC(C)(C)c1ccc(CN2CCN(CCCN3C(=O)C4C5c6ccccc6C(c6ccccc65)C4C3=O)CC2)cc1 (centres unmarked) [Example 6] | 3 µM | 24% |
| O=C1C2C3c4ccccc4C(c4ccccc43)C2C(=O)N1CCCN1CCN(C(c2ccccc2)c2ccc(Cl)cc2)CC1 (centres unmarked) [Example 8] | 50 µM | – |
| FC(F)(F)c1ccccc1CCN1CCN(CCCN2CC3C4c5ccccc5C(c5ccccc54)C3C2)CC1 (centres unmarked) [Example 16] | 5 µM | 13% |
| CC(C)(C)c1ccc(CN2CCN(CCCN3CC4C5c6ccccc6C(c6ccccc65)C4C3)CC2)cc1 (centres unmarked) [Example 18] | 2 µM | – |
